Experimental findings from patent publication US10757935B2, “Composition comprising a pesticide and an alkoxylated ester” (BASF SE, priority 2015, dated 2020) are described below.

In assay [1] the test system is powdery mildew (Blumeria graminis f. sp. hordei). Put plainly: Protective greenhouse trial with Azoxystrobin on barley. The settings on record: barley leaf segments (F and F-1) on agar cut 4 h after application, then inoculated, Azoxystrobin 5 g/ha, adjuvant 50 ml/ha, incubation time 10 d. The format is in vivo. As for the experimental part:
(§1) The influence of the adjuvants was tested separately in a curative and protective greenhouse trial on barley. In each case, barley was cultivated in a substrate “Frustorder Erde” for three weeks with three plants per pot. Each treatment was replicated 14 times. The adjuvant dose rate in each treatment was 50 ml/ha. The assessment of the infection rate was conducted by a trained biologist.
(§2) The adjuvants used in the trials are di-isononanyl-adipate cyclohexanedicarboxylic acid-isononanol-diester, 1,2-cyclohexanediol-di-isononate, di-isononanyl-3EO-adipate, cyclohexanedicarboxylic acid-isononanol-3EO-diester and 1,2-cyclohexanediol-6EO-di-isononate.
4 h after application with the equivalent of 5 g/ha Azoxystrobin, leaf segments were cut off at a length of 7 cm from the stem. 15 leaves of each the F and the F-1 leaf were placed on agar. After the inoculation with powdery mildew (Blumeria graminis f. sp. hordei), the incubation time was 10 d. The assessment of the infection rate was conducted by a trained biologist.

The test system is the same in assay [2]. Put plainly: Curative greenhouse trial with Epoxiconazole on barley. The settings on record: barley leaf segments (F and F-1) on benzimidazole agar, inoculation 2 days prior to application, Epoxiconazole 5 g/ha, adjuvant 50 ml/ha, assessment 14 DAT. Format: in vivo. As for the experimental part:
as §1, §2
An Epoxiconazole SC 250 was used. Inoculation of the leaves with powdery mildew (Blumeria graminis f. sp. hordei) was done 2 days prior to application of the Epoxiconazole formulation. From the stem, 15 leaf segments were cut off with a length of 10 cm using each the flag leaf (F) and the 2nd leaf (F-1). Altogether, the leaves of each were placed on benzimidazole agar i.e. 0.5% Agar with 40 ppm benzimidazole. The concentration of Epoxiconazole for the leaf application was 5 g/ha. Assessment was done 14 days after treatment (14 DAT) of the efficacy against powdery mildew by counting the mildew pustules per leaf on a length of 7 cm.

For the molecule `CO/C=C(/C(=O)OC)c1ccccc1Oc1cc(Oc2ccccc2C#N)ncn1` [Azoxystrobin], the “Powdery mildew infestation (%)” value in assay [1] was found to be 36%.

In the case of `Fc1ccc([C@]2(Cn3cncn3)O[C@H]2c2ccccc2Cl)cc1` (racemic) [Epoxiconazole], in assay [2], the “Powdery mildew infestation (%)” value amounted to 33%.
